Experimental data reported in patent publication US7807439B2, “Staphylococcus aureus-specific detection media and identifying and/or counting method using same” (Biomerieux S.A., priority 2001, dated 2010).

How the values were obtained:
Test in all cases: Experiment 1: chromogenic α-glucosidase substrates in gelled medium, colony coloration
Details in all cases: substrate 100 mg/l
S. epidermidis 009 = assay type: cell-based, Staphylococcus epidermidis; set-up: key to I (intensity of coloration): 0 corresponds to a lack of activity; 0.1 corresponds to the presence of a trace of coloration; 0.5 corresponds to the presence of a very pale coloration; 1 corresponds to the presence of a clear coloration of weak intensity; 1.5 corresponds to the presence of a coloration which is intermediate between colorations 1 and 2; 2 corresponds to the presence of a true coloration of medium intensity; 2.5 corresponds to the presence of a coloration which is intermediate between colorations 2 and 3; 3 corresponds to the presence of an intense coloration; 3.5 corresponds to the presence of a coloration which is intermediate between colorations 3 and 4; 4 corresponds to the presence of a very intense coloration; key to C (coloration of the colonies): —: the symbol “−” is synonymous with a lack of colour or intensity
Method: (§1) The α-glucosidase substrates are solubilized in dimethyl sulfoxide at a concentration of 200 g/l. A sufficient volume to obtain a final concentration of substrate of 100 mg/l is added to the four molten media. Microorganisms derived from the bioMérieux internal collection were seeded onto each one of the media, on their own as three dials, using a suspension at 0.5 MacFarland. However, results obtained with microorganisms derived from collections available to the public, ATCC or NCTC for example, would give identical results. The dishes were incubated at 37° C. for 48 hours. The colonies were examined visually after an incubation time of 24 and 48 hours. The coloration and also the intensity of this coloration were noted.
(§2) In table 2 below, as in the tables which will follow, C represents the coloration of the colonies after incubation, I represents the intensity of this coloration, the symbol “−” is synonymous with a lack of colour or intensity, and, finally, TI defines the incubation time. It should be noted that the intensity of the coloration is an arbitrary scale, but which is common to all the biological samples and all the media tested. This scale is valid for this experiment and also for all the experiments which will follow. It can be defined in the following way: • 0 corresponds to a lack of activity, • 0.1 corresponds to the presence of a trace of coloration, • 0.5 corresponds to the presence of a very pale coloration, • 1 corresponds to the presence of a clear coloration of weak intensity, • 1.5 corresponds to the presence of a coloration which is intermediate between colorations 1 and 2, • 2 corresponds to the presence of a true coloration of medium intensity, • 2.5 corresponds to the presence of a coloration which is intermediate between colorations 2 and 3, • 3 corresponds to the presence of an intense coloration • 3.5 corresponds to the presence of a coloration which is intermediate between colorations 3 and 4, • 4 corresponds to the presence of a very intense coloration.

S. saprophyticus 064 = assay type: cell-based, Staphylococcus saprophyticus; set-up: key to I (intensity of coloration): 0 corresponds to a lack of activity; 0.1 corresponds to the presence of a trace of coloration; 0.5 corresponds to the presence of a very pale coloration; 1 corresponds to the presence of a clear coloration of weak intensity; 1.5 corresponds to the presence of a coloration which is intermediate between colorations 1 and 2; 2 corresponds to the presence of a true coloration of medium intensity; 2.5 corresponds to the presence of a coloration which is intermediate between colorations 2 and 3; 3 corresponds to the presence of an intense coloration; 3.5 corresponds to the presence of a coloration which is intermediate between colorations 3 and 4; 4 corresponds to the presence of a very intense coloration; key to C (coloration of the colonies): —: the symbol “−” is synonymous with a lack of colour or intensity
Method: as §1, §2

S. intermedius 075 = assay type: cell-based, Staphylococcus intermedius; set-up: key to I (intensity of coloration): 0 corresponds to a lack of activity; 0.1 corresponds to the presence of a trace of coloration; 0.5 corresponds to the presence of a very pale coloration; 1 corresponds to the presence of a clear coloration of weak intensity; 1.5 corresponds to the presence of a coloration which is intermediate between colorations 1 and 2; 2 corresponds to the presence of a true coloration of medium intensity; 2.5 corresponds to the presence of a coloration which is intermediate between colorations 2 and 3; 3 corresponds to the presence of an intense coloration; 3.5 corresponds to the presence of a coloration which is intermediate between colorations 3 and 4; 4 corresponds to the presence of a very intense coloration; key to C (coloration of the colonies): —: the symbol “−” is synonymous with a lack of colour or intensity
Method: as §1, §2

S. aureus 004 = assay type: cell-based, Staphylococcus aureus; set-up: key to I (intensity of coloration): 0 corresponds to a lack of activity; 0.1 corresponds to the presence of a trace of coloration; 0.5 corresponds to the presence of a very pale coloration; 1 corresponds to the presence of a clear coloration of weak intensity; 1.5 corresponds to the presence of a coloration which is intermediate between colorations 1 and 2; 2 corresponds to the presence of a true coloration of medium intensity; 2.5 corresponds to the presence of a coloration which is intermediate between colorations 2 and 3; 3 corresponds to the presence of an intense coloration; 3.5 corresponds to the presence of a coloration which is intermediate between colorations 3 and 4; 4 corresponds to the presence of a very intense coloration
Method: as §1, §2

S. aureus 276 = assay type: cell-based, Staphylococcus aureus; set-up: key to I (intensity of coloration): 0 corresponds to a lack of activity; 0.1 corresponds to the presence of a trace of coloration; 0.5 corresponds to the presence of a very pale coloration; 1 corresponds to the presence of a clear coloration of weak intensity; 1.5 corresponds to the presence of a coloration which is intermediate between colorations 1 and 2; 2 corresponds to the presence of a true coloration of medium intensity; 2.5 corresponds to the presence of a coloration which is intermediate between colorations 2 and 3; 3 corresponds to the presence of an intense coloration; 3.5 corresponds to the presence of a coloration which is intermediate between colorations 3 and 4; 4 corresponds to the presence of a very intense coloration
Method: as §1, §2

S. aureus 070 = assay type: cell-based, Staphylococcus aureus; set-up: key to I (intensity of coloration): 0 corresponds to a lack of activity; 0.1 corresponds to the presence of a trace of coloration; 0.5 corresponds to the presence of a very pale coloration; 1 corresponds to the presence of a clear coloration of weak intensity; 1.5 corresponds to the presence of a coloration which is intermediate between colorations 1 and 2; 2 corresponds to the presence of a true coloration of medium intensity; 2.5 corresponds to the presence of a coloration which is intermediate between colorations 2 and 3; 3 corresponds to the presence of an intense coloration; 3.5 corresponds to the presence of a coloration which is intermediate between colorations 3 and 4; 4 corresponds to the presence of a very intense coloration
Method: as §1, §2

S. xylosus 008 = assay type: cell-based, Staphylococcus xylosus; set-up: key to I (intensity of coloration): 0 corresponds to a lack of activity; 0.1 corresponds to the presence of a trace of coloration; 0.5 corresponds to the presence of a very pale coloration; 1 corresponds to the presence of a clear coloration of weak intensity; 1.5 corresponds to the presence of a coloration which is intermediate between colorations 1 and 2; 2 corresponds to the presence of a true coloration of medium intensity; 2.5 corresponds to the presence of a coloration which is intermediate between colorations 2 and 3; 3 corresponds to the presence of an intense coloration; 3.5 corresponds to the presence of a coloration which is intermediate between colorations 3 and 4; 4 corresponds to the presence of a very intense coloration; key to C (coloration of the colonies): —: the symbol “−” is synonymous with a lack of colour or intensity
Method: as §1, §2

Row | Compound | C (coloration of the colonies) (S. epidermidis 009; TI 24 h) | I (intensity of coloration) (S. epidermidis 009; TI 24 h) | C (coloration of the colonies) (S. epidermidis 009; TI 48 h) | I (intensity of coloration) (S. epidermidis 009; TI 48 h) | C (coloration of the colonies) (S. saprophyticus 064; TI 24 h) | I (intensity of coloration) (S. saprophyticus 064; TI 24 h) | C (coloration of the colonies) (S. saprophyticus 064; TI 48 h) | I (intensity of coloration) (S. saprophyticus 064; TI 48 h) | C (coloration of the colonies) (S. intermedius 075; TI 24 h) | I (intensity of coloration) (S. intermedius 075; TI 24 h) | C (coloration of the colonies) (S. intermedius 075; TI 48 h) | I (intensity of coloration) (S. intermedius 075; TI 48 h) | C (coloration of the colonies) (S. aureus 004; TI 24 h) | I (intensity of coloration) (S. aureus 004; TI 24 h) | C (coloration of the colonies) (S. aureus 004; TI 48 h) | I (intensity of coloration) (S. aureus 004; TI 48 h) | C (coloration of the colonies) (S. aureus 276; TI 24 h) | I (intensity of coloration) (S. aureus 276; TI 24 h) | C (coloration of the colonies) (S. aureus 276; TI 48 h) | I (intensity of coloration) (S. aureus 276; TI 48 h) | also measured
1 | OC[C@H]1O[C@H](Oc2c[nH]c3cc(Br)ccc23)[C@H](O)[C@@H](O)[C@@H]1O [Red “A” a-GLU, 6-Bromo-3-indoxyl-α-D-glucoside] | — | 0 | — | 0 | — | 0 | — | 0 | — | 0 | pink | 1.5 | pink | 0.5 | pink | 2.5 | pink | 2 | pink | 2 | C (coloration of the colonies) (S. aureus 070; TI 24 h): pink; I (intensity of coloration) (S. aureus 070; TI 24 h): 2; C (coloration of the colonies) (S. aureus 070; TI 48 h): pink; I (intensity of coloration) (S. aureus 070; TI 48 h): 2.5; C (coloration of the colonies) (S. xylosus 008; TI 24 h): —; I (intensity of coloration) (S. xylosus 008; TI 24 h): 0; C (coloration of the colonies) (S. xylosus 008; TI 48 h): pink; I (intensity of coloration) (S. xylosus 008; TI 48 h): 2.5
2 | 5-bromo-4-chloro-3-indoxyl-α-D-glucoside [X-a-GLU] | — | 0 | turquoise | 1 | — | 0 | turquoise | 0.5 | turquoise | 0.5 | turquoise | 2 | turquoise | 1 | turquoise | 2 | turquoise | 2 | turquoise | 2 | C (coloration of the colonies) (S. aureus 070; TI 24 h): turquoise; I (intensity of coloration) (S. aureus 070; TI 24 h): 1.5; C (coloration of the colonies) (S. aureus 070; TI 48 h): turquoise; I (intensity of coloration) (S. aureus 070; TI 48 h): 1.5; C (coloration of the colonies) (S. xylosus 008; TI 24 h): turquoise; I (intensity of coloration) (S. xylosus 008; TI 24 h): 0.5; C (coloration of the colonies) (S. xylosus 008; TI 48 h): turquoise; I (intensity of coloration) (S. xylosus 008; TI 48 h): 1.5
3 | OC[C@H]1O[C@H](Oc2c[nH]c3cc(Cl)ccc23)[C@H](O)[C@@H](O)[C@@H]1O [Pink-a-GLU, 6-Chloro-3-indoxyl-α-D-glucoside] | — | 0 | — | 0 | — | 0 | — | 0 | — | 0 | pink | 0.5 | pink | 1 | pink | 1 | pink | 1.5 | pink | 1.5 | C (coloration of the colonies) (S. aureus 070; TI 24 h): pink; I (intensity of coloration) (S. aureus 070; TI 24 h): 2; C (coloration of the colonies) (S. aureus 070; TI 48 h): pink; I (intensity of coloration) (S. aureus 070; TI 48 h): 2; C (coloration of the colonies) (S. xylosus 008; TI 24 h): —; I (intensity of coloration) (S. xylosus 008; TI 24 h): 0; C (coloration of the colonies) (S. xylosus 008; TI 48 h): pink; I (intensity of coloration) (S. xylosus 008; TI 48 h): 0.5
